According to patent US9610281B2 (priority 2012, dated 2017):

Tests used:
[1] = molecular target: T1, dopamine D2 receptor (Homo sapiens, UniProt P14416); assay: FLIPR Ca2+ assay, antagonist of dopamine D2 receptor in transiently transfected HEK293T cells; assay type: cell-based; conditions: for antagonist effect on dopamine D2 receptor: intracellular Ca2+, vs DMSO blank
T1 construct: expressed in transfected cells; host or cells: HEK293T (transiently transfected)
Procedure: (§1) Experimental scheme: the cells used to express μ opioid receptors in this research are stably transfected human embryonic kidney 293T cells (HEK293T); the dopamine receptor applied is transiently transfected HEK293T. In this scheme, part of the berberine derivatives obtained in the present invention were added to the cells that have expressed with corresponding receptors, and FLIPR (Fluorometric Imaging Plate Reader; Molecular Devices Corp) was applied to screen and identify their functions. Specifically: inoculate cells to a 96-well cell culture plate coated with poly-D-lysme based on 80,000 per well, after 24 hours, remove the medium, add 100 μl fluorescent dye solution (2 μM Fluo-4 AM dissolves first in pluronic acid and then in the buffer composed of haploid Hank's buffer and 20 mM HEPES, with pH 7.4) to each well and keep it at 37° C. for 1 hour, then wash the cells with the buffer three times. Dissolve the compounds to be tested with DMSO and put them in a 96-well plate, apply FLIPR to automatically add samples to the cell culture plate and incubate for 3 min (for the tests of agonist of μ-opioid receptor) or 10 min (for the tests of antagonist of dopamine receptor). Then perform fluorescence detection under the wavelength of 520 nm and 488 nm, thus monitoring the concentration of Ca^2+ in the cells.
(§2) The experimental scheme is the same as that in example 1, except that when adding, dilute the compounds to be tested with buffer to different concentrations, so as to detect responses under different doses. This method has been used to test DHCB effect on μ-opioid receptors and 5 dopamine receptors, with the results as shown in FIG. 3 and Table 1. […] In addition, μ-opioid receptor's weak synergism can further enhance the analgesic effect of DHCB.

[2] = molecular target: T2, μ opioid receptor (Homo sapiens, UniProt P35372); assay: FLIPR Ca2+ assay, agonist of μ opioid receptor in stably transfected HEK293T cells; assay type: cell-based; conditions: for agonist effect on μ opioid receptor: intracellular Ca2+, vs DMSO blank
T2 construct: expressed in transfected cells; host or cells: HEK293T (stably transfected)
T2 sequence (P35372 whole entry, species assumed): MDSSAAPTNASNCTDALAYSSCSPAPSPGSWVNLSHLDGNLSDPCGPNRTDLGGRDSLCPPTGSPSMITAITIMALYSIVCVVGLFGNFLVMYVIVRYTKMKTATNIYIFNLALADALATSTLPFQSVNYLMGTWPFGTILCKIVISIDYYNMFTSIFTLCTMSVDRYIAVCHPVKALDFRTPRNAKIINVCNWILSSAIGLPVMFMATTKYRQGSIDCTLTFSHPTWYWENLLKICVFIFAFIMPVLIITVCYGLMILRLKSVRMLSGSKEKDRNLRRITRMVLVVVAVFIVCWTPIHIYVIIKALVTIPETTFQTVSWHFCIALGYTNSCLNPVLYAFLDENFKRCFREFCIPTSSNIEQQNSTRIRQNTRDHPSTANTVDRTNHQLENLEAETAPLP
Procedure: as §1, §2

[3] = tested on: CD-1 mice; assay: Thermal radiation tail-flick experiment I in mice (analgesic effect); assay type: in vivo; conditions: for Tail-flick threshold: injected into abdominal cavity, 30 min after dosing, cut-off 22 sec
Procedure: Thermal Radiation Tail-flick Experiment I in Mice (Tail-flick assay): to Evaluate the Analgesic Effect In Vivo of the Compounds of the Present Invention.
Select CD-1 mice (with the original weight being 30-40 g) and divide them into 6 groups (solvent group, morphine group, 1-THP group and DHCB groups with different doses: 5, 10, and 40 mg/kg), each including 9-11 mice. Place mice tails on the thermal radiation tail-flick apparatus and direct the light beam at ⅓ of the mice tails. First determine the basic pain thresholds of each group of mice, then inject the test samples into the abdominal cavities of the mice respectively, and after 30 min, re-determine the mice's pain thresholds. The irradiation time was no more than 22 sec. See Table 2 for the determination results.

[4] = tested on: mice; assay: Drug resistance experiment (mice tail-flick under thermal radiation, 7 days); assay type: in vivo; conditions: successive 7 days, DHCB 10 mg/kg into abdominal cavity, thresholds every other day
Procedure: Drug resistance is a defect existing in many commonly used analgesics, which constitutes great limitations on their use. This experiment studies the drug resistance of DHCB through mice tail-flick under thermal radiation. During the experiment, DHCB (10 mg/kg) had been injected into the abdominal cavity of the mice for successive 7 days and the mice's pain thresholds had been detected every other day.

[5] = tested on: CD-1 mice; assay: Thermal radiation tail-flick experiment II in mice (duration time of analgesic effect); assay type: in vivo; conditions: pain thresholds within 6 hours; DHCB 20 and 40 mg/kg
Procedure: Thermal Radiation Tail-flick Experiment II in Mice (Tail-flick Assay): to Evaluate the Duration Time of the Analgesic Effect In Vivo of the Compounds of the Present Invention.
Select CD-1 mice (with the original weight being 30-40 g) and divide them into […] (solvent group, morphine group, and DHCB groups with different doses: 10, 20 and 40 mg/kg), each including 9-11 mice. Place mice tails on the thermal radiation tail-flick apparatus and direct the light beam at ⅓ of the mice tails. First determine the basic pain thresholds of each group of mice, then inject the test samples into the abdominal cavities of the mice respectively, and determine the mice's pain thresholds within 6 hours according to time points. The irradiation time was no more than 22 sec.

[6] = molecular target: T3, Dopamine D3 (Homo sapiens, UniProt P35462); assay: FLIPR Ca2+ assay, antagonist of dopamine D3 receptor in transiently transfected HEK293T cells; assay type: cell-based
T3 construct: expressed in transfected cells; host or cells: HEK293T (transiently transfected)
T3 sequence (P35462 whole entry): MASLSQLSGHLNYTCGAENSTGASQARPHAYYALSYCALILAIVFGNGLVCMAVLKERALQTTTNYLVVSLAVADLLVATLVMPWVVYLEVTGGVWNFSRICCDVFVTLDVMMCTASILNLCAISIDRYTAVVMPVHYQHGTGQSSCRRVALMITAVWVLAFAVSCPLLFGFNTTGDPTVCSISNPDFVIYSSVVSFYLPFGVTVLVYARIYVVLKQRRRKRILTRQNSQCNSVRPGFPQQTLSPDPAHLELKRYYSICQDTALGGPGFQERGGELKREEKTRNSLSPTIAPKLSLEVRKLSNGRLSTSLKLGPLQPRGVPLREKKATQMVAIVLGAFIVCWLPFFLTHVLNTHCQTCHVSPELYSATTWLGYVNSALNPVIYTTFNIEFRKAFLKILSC
Procedure: as §1, with “cells. […]” for “cells.”

[7] = molecular target: T4, Dopamine D4 (Homo sapiens, UniProt P21917); assay: FLIPR Ca2+ assay, antagonist of dopamine D4 receptor in transiently transfected HEK293T cells; assay type: cell-based
T4 construct: expressed in transfected cells; host or cells: HEK293T (transiently transfected)
T4 sequence (P21917 1-419): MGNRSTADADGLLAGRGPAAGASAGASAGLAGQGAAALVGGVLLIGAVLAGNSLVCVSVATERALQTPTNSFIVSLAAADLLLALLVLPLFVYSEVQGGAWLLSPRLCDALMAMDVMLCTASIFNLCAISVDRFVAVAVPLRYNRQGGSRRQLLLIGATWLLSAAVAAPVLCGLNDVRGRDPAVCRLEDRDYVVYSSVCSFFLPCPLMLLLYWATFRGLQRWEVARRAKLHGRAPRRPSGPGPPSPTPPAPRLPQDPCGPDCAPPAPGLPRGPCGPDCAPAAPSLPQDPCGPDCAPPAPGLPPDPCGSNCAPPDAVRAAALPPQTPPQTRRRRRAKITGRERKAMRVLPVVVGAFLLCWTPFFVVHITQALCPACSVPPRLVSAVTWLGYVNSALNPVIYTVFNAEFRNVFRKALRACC
Procedure: as §1, with “cells. […]” for “cells.”

[8] = molecular target: T5, Dopamine D1 (Homo sapiens, UniProt P21728); assay: FLIPR Ca2+ assay, antagonist of dopamine D1 receptor in transiently transfected HEK293T cells; assay type: cell-based
T5 construct: expressed in transfected cells; host or cells: HEK293T (transiently transfected)
T5 sequence (P21728 whole entry): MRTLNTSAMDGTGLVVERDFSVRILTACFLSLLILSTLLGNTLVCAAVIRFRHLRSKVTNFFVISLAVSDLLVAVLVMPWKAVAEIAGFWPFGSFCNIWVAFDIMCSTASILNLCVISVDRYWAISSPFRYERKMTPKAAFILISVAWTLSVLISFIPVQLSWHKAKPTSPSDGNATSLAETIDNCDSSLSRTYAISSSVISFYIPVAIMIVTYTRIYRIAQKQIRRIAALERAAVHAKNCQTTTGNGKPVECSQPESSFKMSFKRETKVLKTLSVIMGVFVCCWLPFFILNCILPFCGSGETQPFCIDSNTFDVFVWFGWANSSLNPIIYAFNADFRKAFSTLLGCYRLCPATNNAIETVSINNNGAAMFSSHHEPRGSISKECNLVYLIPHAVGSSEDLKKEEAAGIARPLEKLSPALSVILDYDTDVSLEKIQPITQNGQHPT
Procedure: as §1, with “cells. […]” for “cells.”

[9] = tested on: CD-1 mice; assay: Formalin pain experiment in mice; assay type: in vivo; conditions: 5% formalin 15 min after drug
Procedure: Activity Example 5: to Evaluate the Analgesic Effect In Vivo of the Compounds of the Present Invention Through Formalin Pain Experiment in Mice.
Select CD-1 mice (with the original weight being 30-40 g) and divide them into 4 groups (solvent group, morphine group, and DHCB groups with different doses: 5 and 10 mg/kg), each including 9-11 mice. Place hind paws of the mice that are marked with formalin injection into the cages for 15-30 min. Inject drugs of corresponding doses into each mouse, and after 15 min, infuse 5% formalin solution subcutaneously into the underside of marked paw feet. The mice soon began to lick or bite their injected feet. Keep observation for 50 min, and record mice feet-licking time within phase I (0-5 min) and phase II (10-50 min).

[10] = molecular target: T6, Dopamine D5 (Homo sapiens, UniProt P21918); assay: FLIPR Ca2+ assay, antagonist of dopamine D5 receptor in transiently transfected HEK293T cells; assay type: cell-based
T6 construct: expressed in transfected cells; host or cells: HEK293T (transiently transfected)
T6 sequence (P21918 whole entry): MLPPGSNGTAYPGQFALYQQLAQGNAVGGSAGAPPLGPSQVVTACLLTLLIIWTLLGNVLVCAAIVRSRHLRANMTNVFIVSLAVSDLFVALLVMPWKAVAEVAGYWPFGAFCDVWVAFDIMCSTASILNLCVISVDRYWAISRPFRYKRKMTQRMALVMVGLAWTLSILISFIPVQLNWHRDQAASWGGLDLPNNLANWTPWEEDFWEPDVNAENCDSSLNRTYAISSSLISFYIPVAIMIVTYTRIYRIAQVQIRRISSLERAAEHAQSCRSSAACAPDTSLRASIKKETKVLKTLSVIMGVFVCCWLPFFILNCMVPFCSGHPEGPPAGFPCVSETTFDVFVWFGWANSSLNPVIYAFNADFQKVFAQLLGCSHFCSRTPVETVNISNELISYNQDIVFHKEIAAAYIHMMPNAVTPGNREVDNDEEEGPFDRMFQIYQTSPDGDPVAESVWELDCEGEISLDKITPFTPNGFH
Procedure: as §1, with “cells. […]” for “cells.”

T1 sequence (P14416 whole entry, species assumed): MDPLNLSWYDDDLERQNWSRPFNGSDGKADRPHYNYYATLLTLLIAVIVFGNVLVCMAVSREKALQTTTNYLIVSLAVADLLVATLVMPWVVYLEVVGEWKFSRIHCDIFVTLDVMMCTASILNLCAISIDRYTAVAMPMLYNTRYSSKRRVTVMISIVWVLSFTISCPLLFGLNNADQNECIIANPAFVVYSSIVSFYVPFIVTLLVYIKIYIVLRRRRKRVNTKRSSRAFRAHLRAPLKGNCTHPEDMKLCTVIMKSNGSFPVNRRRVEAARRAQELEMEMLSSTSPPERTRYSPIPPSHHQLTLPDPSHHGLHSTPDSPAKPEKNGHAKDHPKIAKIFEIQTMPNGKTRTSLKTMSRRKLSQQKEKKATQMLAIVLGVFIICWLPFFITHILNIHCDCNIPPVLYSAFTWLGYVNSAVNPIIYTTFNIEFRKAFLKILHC

In the case of COc1cc2c(cc1O)CC[n+]1cc3c(O)c(OC)ccc3c(C)c1-2 [Compound 16], the “antagonist effect on dopamine D2 receptor” value (shortened to “antagonist effect”) ([1]; FLIPR, HEK293T) is reported as “good antagonist” and the “agonist effect on μ opioid receptor” value [2] is reported as “a certain agonist”.
For COc1cc2c(cc1O)-c1c(C)c3ccc(OC)c(O)c3c[n+]1CC2 [Compound 14], the “antagonist effect” value ([1]; FLIPR, HEK293T) was “good antagonist”.
CN1CC[C@]23c4c5ccc(O)c4O[C@H]2[C@@H](O)C=C[C@H]3[C@H]1C5 [morphine, reference compound] was tested, and the Tail-flick threshold ([3]; 10 mg/kg) was 20 s, the “analgesic effect on repeated dosing (drug resistance)” value [4] was “began to reduce obviously from the third day” and the “duration of analgesic effect in tail-flick” value [5] was “weakens quickly two hours later”.
Work on COc1cc2c(cc1O)CC[n+]1cc3c(OC)c(OC)ccc3c(C)c1-2 [Compound 12, dehydrocorybulbine] yielded a Tail-flick threshold ([3]; 5 mg/kg) of 9 s, a Tail-flick threshold ([3]; 10 mg/kg) of 12 s and a Tail-flick threshold ([3]; 40 mg/kg) of 17 s. The “analgesic effect in tail-flick” value ([3]; doses of 5, 10, and 40 mg/kg) was “significant dose-dependent analgesic effect”, the “analgesic effect on heat stimulation compared with morphine” value ([3]; high dose 40 mg/kg) was “close to that of small-dose morphine” and the “analgesic effect in tail-flick compared with controls” value ([3]; low dose 10 mg/kg) was “superior to that of THP”. For the same compound, the “antagonist activity on D2 compared with THP” value ([1]; FLIPR screen, THP positive control) was “equivalent to that of THP”, the “antagonist effect” value ([1]; FLIPR, HEK293T) was “good antagonist” and the “antagonist effect” value ([1]; FLIPR, HEK293T, listed as DHCB) was “antagonist”. For the same compound, the IC50 ([1]; dose-effect curve, FLIPR, HEK293T) was 520 nM, the “analgesic effect on repeated dosing (drug resistance)” value [4] was “unchanged analgesic effect” and the “effect on dopamine D3 receptor” value ([6]; dose-effect) was “antagonist”. The IC50 ([6]; dose-effect curve, HEK293T) was 2400 nM, the “effect on dopamine D4 receptor” value ([7]; dose-effect) was “antagonist” and the IC50 ([7]; dose-effect curve, HEK293T) was 8.4 µM. For the same compound, the “duration of analgesic effect in tail-flick” value [5] was “does not exhibit conspicuous attenuation until four hours have passed”, the EC50 ([2]; dose-effect curve) was 100 µM and the “agonist effect on μ opioid receptor” value [2] was “a certain agonist”. For the same compound, the “agonist effect on μ opioid receptor” value ([2]; listed as DHCB) was “weak agonist”, the “effect on dopamine D1 receptor” value ([8]; dose-effect) was “antagonist” and the IC50 ([8]; dose-effect curve, HEK293T) was 2160 nM. The “analgesic effect within phase I (0-5 min), feet-licking time” value ([9]; 5 mg/kg and 10 mg/kg) was “substantial analgesic effect”, the “analgesic effect within phase II (10-50 min), feet-licking time” value ([9]; 10 mg/kg) was “significant analgesic effect” and the “effect on dopamine D5 receptor” value ([10]; dose-effect) was “antagonist”. It also gave an IC50 ([10]; dose-effect curve, HEK293T) of 730 nM.
In the case of COc1cc2c(cc1O)-c1c(C)c3ccc(OC)c(OC)c3c[n+]1CC2 [Compound 10], the “antagonist effect” value ([1]; FLIPR, HEK293T) is reported as “good antagonist”.
In the case of COc1cc2c(cc1OC)[C@@H]1Cc3ccc(OC)c(OC)c3CN1CC2 [Compound 1-THP, L-tetrahydropalmatine, reference compound], the Tail-flick threshold ([3]; 10 mg/kg) is reported as 10 s.
